Measured values: the NIST ThermoML archive (doi:10.1016/j.fluid.2004.09.013)
Numbers after ± are expanded uncertainties.

Conditions: for mass density: Fluid (supercritical or subcritical phases), Vibrating tube method; for vapor or sublimation pressure: Liquid

C/C=C\C [(Z)-2-butene]
Conditions | mass density [kg/m3]
273.24 K, 530 kPa | 644.99 ± 1.3
273.24 K, 5019 kPa | 650.08 ± 1.3
273.24 K, 10002 kPa | 655.33 ± 1.3
273.24 K, 15013 kPa | 660.23 ± 1.4
273.24 K, 19996 kPa | 664.79 ± 1.4
273.24 K, 24988 kPa | 669.08 ± 1.4
273.24 K, 29997 kPa | 673.15 ± 1.4
273.24 K, 35005 kPa | 677.01 ± 1.5
273.24 K, 39991 kPa | 680.66 ± 1.5
278.25 K, 531 kPa | 639.3 ± 1.3
278.25 K, 4987 kPa | 644.61 ± 1.3
278.25 K, 10000 kPa | 650.13 ± 1.3
278.25 K, 15004 kPa | 655.23 ± 1.4
278.25 K, 19984 kPa | 659.97 ± 1.4
278.25 K, 25004 kPa | 664.45 ± 1.4
278.25 K, 30003 kPa | 668.65 ± 1.4
278.25 K, 34993 kPa | 672.62 ± 1.4
278.25 K, 39994 kPa | 676.39 ± 1.5
283.26 K, 528 kPa | 633.56 ± 1.3
283.26 K, 5005 kPa | 639.17 ± 1.3
283.26 K, 9984 kPa | 644.91 ± 1.3
283.26 K, 14999 kPa | 650.24 ± 1.4
283.26 K, 19995 kPa | 655.17 ± 1.4
283.26 K, 25010 kPa | 659.81 ± 1.4
283.26 K, 29992 kPa | 664.14 ± 1.4
283.26 K, 35004 kPa | 668.25 ± 1.4
283.26 K, 39997 kPa | 672.15 ± 1.5
288.27 K, 531 kPa | 627.75 ± 1.3
288.27 K, 4995 kPa | 633.64 ± 1.3
288.27 K, 10005 kPa | 639.69 ± 1.3
288.27 K, 14999 kPa | 645.22 ± 1.3
288.27 K, 20014 kPa | 650.37 ± 1.4
288.27 K, 25005 kPa | 655.16 ± 1.4
288.27 K, 29991 kPa | 659.64 ± 1.4
288.27 K, 34992 kPa | 663.87 ± 1.4
288.27 K, 40003 kPa | 667.9 ± 1.5
293.28 K, 532 kPa | 621.87 ± 1.3
293.28 K, 4990 kPa | 628.07 ± 1.3
293.28 K, 10006 kPa | 634.4 ± 1.3
293.28 K, 20011 kPa | 645.53 ± 1.4
293.28 K, 25006 kPa | 650.48 ± 1.4
293.28 K, 30000 kPa | 655.14 ± 1.4
293.28 K, 34996 kPa | 659.52 ± 1.4
293.28 K, 39986 kPa | 663.65 ± 1.5
293.29 K, 14995 kPa | 640.16 ± 1.3
298.29 K, 29993 kPa | 650.63 ± 1.4
298.3 K, 528 kPa | 615.89 ± 1.2
298.3 K, 5009 kPa | 622.46 ± 1.3
298.3 K, 9991 kPa | 629.06 ± 1.3
298.3 K, 14998 kPa | 635.11 ± 1.3
298.3 K, 20004 kPa | 640.67 ± 1.4
298.3 K, 24996 kPa | 645.82 ± 1.4
298.3 K, 34987 kPa | 655.14 ± 1.4
298.3 K, 40002 kPa | 659.43 ± 1.5
303.31 K, 568 kPa | 609.88 ± 1.2
303.31 K, 4986 kPa | 616.72 ± 1.3
303.31 K, 9987 kPa | 623.69 ± 1.3
303.31 K, 15011 kPa | 630.03 ± 1.3
303.31 K, 20004 kPa | 635.8 ± 1.3
303.31 K, 25003 kPa | 641.15 ± 1.4
303.31 K, 29993 kPa | 646.12 ± 1.4
303.31 K, 34986 kPa | 650.78 ± 1.4
303.31 K, 40003 kPa | 655.2 ± 1.5
308.32 K, 610 kPa | 603.77 ± 1.2
308.32 K, 5003 kPa | 610.96 ± 1.2
308.32 K, 9990 kPa | 618.26 ± 1.3
308.32 K, 14985 kPa | 624.84 ± 1.3
308.32 K, 19996 kPa | 630.86 ± 1.3
308.32 K, 24991 kPa | 636.41 ± 1.4
308.32 K, 29986 kPa | 641.56 ± 1.4
308.32 K, 34983 kPa | 646.37 ± 1.4
308.32 K, 40002 kPa | 650.92 ± 1.4
313.2 K, 842 kPa | 598.01 ± 1.2
313.2 K, 25002 kPa | 631.74 ± 1.4
313.21 K, 4983 kPa | 605.15 ± 1.2
313.21 K, 9999 kPa | 612.86 ± 1.3
313.21 K, 14998 kPa | 619.73 ± 1.3
313.21 K, 19993 kPa | 625.98 ± 1.3
313.21 K, 29990 kPa | 637.05 ± 1.4
313.21 K, 34989 kPa | 642.02 ± 1.4
313.21 K, 39990 kPa | 646.68 ± 1.4
318.21 K, 898 kPa | 591.77 ± 1.2
318.21 K, 4989 kPa | 599.26 ± 1.2
318.21 K, 9999 kPa | 607.36 ± 1.2
318.21 K, 14989 kPa | 614.54 ± 1.3
318.21 K, 19986 kPa | 621.05 ± 1.3
318.21 K, 24990 kPa | 627.03 ± 1.4
318.21 K, 30002 kPa | 632.56 ± 1.4
318.21 K, 34994 kPa | 637.68 ± 1.4
318.21 K, 39987 kPa | 642.47 ± 1.4
323.21 K, 965 kPa | 585.41 ± 1.2
323.21 K, 4984 kPa | 593.22 ± 1.2
323.21 K, 9985 kPa | 601.76 ± 1.2
323.21 K, 14986 kPa | 609.3 ± 1.3
323.21 K, 20004 kPa | 616.11 ± 1.3
323.21 K, 25000 kPa | 622.31 ± 1.3
323.21 K, 29993 kPa | 628.01 ± 1.4
323.21 K, 34993 kPa | 633.32 ± 1.4
323.21 K, 40000 kPa | 638.29 ± 1.4
328.21 K, 14983 kPa | 604.03 ± 1.3
328.21 K, 25010 kPa | 617.59 ± 1.3
328.21 K, 34998 kPa | 628.95 ± 1.4
328.21 K, 40002 kPa | 634.07 ± 1.4
328.22 K, 1031 kPa | 578.91 ± 1.2
328.22 K, 4985 kPa | 587.11 ± 1.2
328.22 K, 9992 kPa | 596.13 ± 1.2
328.22 K, 19995 kPa | 611.12 ± 1.3
328.22 K, 29991 kPa | 623.48 ± 1.4
333.22 K, 1102 kPa | 572.28 ± 1.2
333.22 K, 4993 kPa | 580.89 ± 1.2
333.22 K, 10002 kPa | 590.44 ± 1.2

Conditions | vapor or sublimation pressure [kPa]
290.72 K | 166.5 ± 1.1
297.95 K | 212.17 ± 1.4
306.92 K | 280.95 ± 1.9
316.39 K | 369.5 ± 2.4
326.09 K | 483.32 ± 3.1
331.25 K | 549.64 ± 3.6
